Test results as given in patent US20070123514A1, “Methods of modulating neurotrophin-mediated activity” (PainCeptor Pharma Corporation, priority 2005, published 2007).

Key:
[1] = system: NGF-induced Erk 1/2 phosphorylation in PC12 cells; assay: Erk phosphorylation in NGF-stimulated PC12 cells (Western blot, ELISA); type: cell-based, rat; details: 1 ng/mL NGF, result in words
Procedure: This assay is useful for establishing that the compounds of the invention are functional NGF antagonists, not receptor agonists (an agonist could conceivably block NGF binding but actually activate the receptor). Erk 1/2 is a kinase activated down stream of TrkA and is a well studied member of the NGF-induced signal transduction cascade.
PC12 cells expressing TrkA and p75 were acutely exposed to 1 ng/mL NGF (15 min; 37° C.; 5% CO2) that was pre-incubated (30 min; room temperature) with or without the compounds. Cells were lysed in Laemmli sample buffer (for SDS-PAGE) or a lysis buffer containing Triton X-100 (for ELISA). Following SDS-PAGE, proteins were electroblotted onto nitrocellulose and immunoprobed for phosphorylated Erk 1 and 2. Blocking and primary antibody incubations of immunoblots were performed in Tris-buffered saline-Tween (10 mM Tris, pH 8.0, 150 mM NaCl, and 0.2% Tween 20) supplemented with 5% (w/v) bovine serum albumin (BSA); secondary antibody incubations were performed in 5% (w/v) dried skim milk powder. Immunoreactive bands were detected by chemiluminescence.
To detect phosphorylated Erk 1/2 by ELISA, a kit from R&D (Minneapolis, Minn.) Systems was used. […] The quantity of phosphoryated Erk 1/2 was quantified colorometrically with a standard HRP-streptavidin reaction.

Male Sprague-Dawley rats = assay: Formalin model of acute tonic pain; type: in vivo, rat
Procedure: Male Sprague-Dawley rats were given a subcutaneous injection of 50 μl of 2.5% formalin into the plantar surface of one hindpaw using a 27 gauge syringe needle, and nociceptive responses were measured for the next 60 min. Compound or vehicle was administered (ip. or s.c.) 15-45 minutes prior to the formalin injection. A nociceptive score was determined for each 5 min block by measuring the amount of time spent in each of four behavioral categories: 0, the injected hindpaw is indistinguishable from that of the contralateral paw; 1, the injected paw has little or no weight placed on it; 2, the injected paw is elevated and is not in contact with any surface; 3, the injected paw is licked, bitten, or shaken. A weighted nociceptive score, ranging from 0 to 3 was calculated by multiplying the time spent in each category by the category weight, summing these products, and dividing by the total time for each 5 min block of time (Coderre et al., Pain 1993; 54: 43). On the basis of the resulting response patterns, 2 phases of nociceptive behaviour were identified and scored: first phase (P1; 0-5 min) and second phase (P2; 11-40 min).
Statistical analysis was performed using Prism™ 4.01 software package (GraphPad, San Diego, Calif., USA). The difference in response levels between treatment groups and control vehicle group was analyzed using an ANOVA followed by Bonferroni's method for post-hoc pair-wise comparisons. A p value <0.05 was considered to be significant.
Animals were treated with vehicle (VEH) or Compound 5 (50 mg/kg i.p.; CMP) 10-20 minutes before the intraplantar injection of 2.5% formalin, as described above.

## O=C(O)c1ccc(Cl)c(N2C(=O)c3cccc4cc([N+](=O)[O-])cc(c34)C2=O)c1 [Compound 5, 4-Chloro-3-(5-nitro-1,3-dioxo-1H,3H-benzo[de]isoquinolin-2-yl)-benzoic acid]
[1]
  NGF-induced Erk 1/2 phosphorylation, ELISA: inhibits NGF-induced Erk 1/2 phosphorylation
  NGF-induced Erk 1/2 phosphorylation, Western blot: inhibits NGF-induced Erk 1/2 phosphorylation
Male Sprague-Dawley rats; 50 mg/kg i.p. 10-20 min before 2.5% formalin, vehicle 148±9, n=8
  formalin-induced spontaneous responses, Phase I: 59±15
Male Sprague-Dawley rats; 50 mg/kg i.p. 10-20 min before 2.5% formalin, vehicle 180±6, n=8
  formalin-induced spontaneous responses, Phase II: 61±19
Male Sprague-Dawley rats; 50 mg/kg i.p., result in words, p<0.001 vs vehicle, 50 mg/kg
  antinociceptive effect in the Formalin Test: significant antinociceptive effects
